The text below walks through data of patent US20210253518A1, “KINASE INHIBITOR” (NISSAN CHEMICAL CORPORATION, priority 2018, published 2021).

SMILES strings stand for the structures.

Assay type in all cases: biochemical
In test [1] the target is T1, LATS2 (Homo sapiens, UniProt Q9NRM7).
T1 sequence (Q9NRM7 1-1088): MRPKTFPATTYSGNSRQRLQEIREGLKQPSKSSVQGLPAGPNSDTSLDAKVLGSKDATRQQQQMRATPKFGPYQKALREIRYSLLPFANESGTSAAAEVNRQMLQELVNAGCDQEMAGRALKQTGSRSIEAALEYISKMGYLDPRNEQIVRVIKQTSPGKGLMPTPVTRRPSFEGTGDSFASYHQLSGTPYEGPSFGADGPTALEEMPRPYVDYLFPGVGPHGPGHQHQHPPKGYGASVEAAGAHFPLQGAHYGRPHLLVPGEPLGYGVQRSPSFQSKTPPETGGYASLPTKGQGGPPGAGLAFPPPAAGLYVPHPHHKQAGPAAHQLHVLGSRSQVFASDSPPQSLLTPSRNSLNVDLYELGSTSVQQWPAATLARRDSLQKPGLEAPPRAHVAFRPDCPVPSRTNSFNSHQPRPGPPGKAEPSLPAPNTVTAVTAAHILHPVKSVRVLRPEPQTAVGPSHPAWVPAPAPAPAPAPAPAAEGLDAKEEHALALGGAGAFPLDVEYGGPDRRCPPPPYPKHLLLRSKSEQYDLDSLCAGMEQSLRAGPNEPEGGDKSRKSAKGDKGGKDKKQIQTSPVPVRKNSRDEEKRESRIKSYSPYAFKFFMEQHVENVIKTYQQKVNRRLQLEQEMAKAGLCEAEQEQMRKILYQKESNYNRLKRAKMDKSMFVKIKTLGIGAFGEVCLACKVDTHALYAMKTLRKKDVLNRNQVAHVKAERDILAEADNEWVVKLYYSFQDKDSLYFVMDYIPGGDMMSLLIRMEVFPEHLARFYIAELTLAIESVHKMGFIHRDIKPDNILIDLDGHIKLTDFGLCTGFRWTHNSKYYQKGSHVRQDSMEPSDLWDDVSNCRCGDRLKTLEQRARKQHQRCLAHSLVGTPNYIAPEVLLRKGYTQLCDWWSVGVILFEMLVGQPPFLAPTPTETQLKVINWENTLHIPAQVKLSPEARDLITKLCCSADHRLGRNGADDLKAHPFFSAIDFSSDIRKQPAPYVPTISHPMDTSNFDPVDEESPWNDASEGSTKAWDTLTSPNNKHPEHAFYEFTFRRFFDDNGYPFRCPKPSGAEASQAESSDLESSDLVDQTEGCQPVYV
Description: Off-chip Mobility Shift Assay (MSA method), kinase inhibition. As to conditions: MSA method; 10 steps from 10 μM to 0.3 nM. As to the method: For compound k-1:B-1, inhibitory activity evaluation (calculation of 50% inhibitory concentration (IC50)) was performed on 8 kinds of kinases (CGK2, LATS2, MSK1, p70S6K, PKACα, PKACβ, SGK2, SGK3). The activity was measured using the Off-chip Mobility Shift Assay (MSA method) described below. The compound was added such that the test concentration of k-1:B-1 was in 10 steps from the final concentration of 10 μM to 0.3 nM.
As an analysis method of the data, the mean signal of the control well containing all reaction components was set to 0% inhibition, the mean signal without enzyme addition was set to 100% inhibition, and the inhibition rate was calculated from the mean signal of 2 wells of each test substance test. The IC50 value was obtained by approximating a plot based on the test substance concentration and inhibition rate to a 4 parameter logistics curve by using the Excel Solver add-in and by the non-linear least squares method.
(§1) 5 μL of k-1:B-1 solution at 4-fold concentration, 5 μL of substrate/ATP/metal solution at 4-fold concentration, and 10 μL of kinase solution at 2-fold concentration, each prepared with assay buffer (20 mM HEPES, 0.01% Triton X-100, 2 mM DTT, pH 7.5), were mixed in the wells of a polypropylene 384-well plate and reacted at room temperature for 1 or 5 hr. Successively, 70 μL of Termination Buffer (QuickScout Screening Assist MSA; Carna Biosciences) was added to discontinue the reaction. Then, the substrate peptide and the phosphorylated peptide in the reaction solution were separated and quantified by the LabChip system (Perkin Elmer). The kinase reaction was evaluated by the resultant product ratio (P/(P+S)) calculated from the substrate peptide peak height (S) and the phosphorylated peptide peak height (P).
For compounds k-1:H-7, k-1:H-1, k-1:D-1, k-1:J-1, and k-1:B-1, inhibitory rate at 100 nM was calculated on 8 kinds of kinases (CGK2, LATS2, MSK1, p70S6K, PKACα, PKACβ, SGK2, SGK3). The activity was measured using the MSA method. As an analysis method of the data, the mean signal of the control well containing all reaction components was set to 0% inhibition, the mean signal without enzyme addition was set to 100% inhibition, and the inhibition rate was calculated from the mean signal of 2 wells of each test substance test.
as §1, with “a compound” for “k-1:B-1”
For compounds k-1:I-1, k-1:D-1, k-1:J-1, k-1:H-1, k-1:H-7, k-1:B-1, k-5:H-1, k-1:H-3, k-1:D-4 and k-1:I-10, inhibitory activity evaluation (calculation of IC50) was performed on LATS2. The activity was measured using the Off-chip Mobility Shift Assay (MSA method) described below. The compounds were added such that the test concentration of each compound was in 10 steps from the final concentration of 10 μM to 0.3 nM.
5 μL of k-1:I-1, k-1:D-1, k-1:J-1, k-1:H-1, k-1:H-7, k-1:B-1, k-5:H-1, k-1:H-3, k-1:D-4 and k-1:I-10 solutions at 4-fold concentration, 5 μL of substrate/ATP/metal solution at 4-fold concentration, and 10 μL of kinase solution at 2-fold concentration, each prepared with assay buffer (20 mM HEPES, 0.01% Triton X-100, 2 mM DTT, pH 7.5), were mixed in the wells of a polypropylene 384-well plate and reacted at room temperature for 1 or 5 hr. […]

The target in another test is T2, LATS1 (Homo sapiens, UniProt O95835).
T2 construct: purchased Carna Biosciences
T2 sequence (O95835 589-1130 limits assumed): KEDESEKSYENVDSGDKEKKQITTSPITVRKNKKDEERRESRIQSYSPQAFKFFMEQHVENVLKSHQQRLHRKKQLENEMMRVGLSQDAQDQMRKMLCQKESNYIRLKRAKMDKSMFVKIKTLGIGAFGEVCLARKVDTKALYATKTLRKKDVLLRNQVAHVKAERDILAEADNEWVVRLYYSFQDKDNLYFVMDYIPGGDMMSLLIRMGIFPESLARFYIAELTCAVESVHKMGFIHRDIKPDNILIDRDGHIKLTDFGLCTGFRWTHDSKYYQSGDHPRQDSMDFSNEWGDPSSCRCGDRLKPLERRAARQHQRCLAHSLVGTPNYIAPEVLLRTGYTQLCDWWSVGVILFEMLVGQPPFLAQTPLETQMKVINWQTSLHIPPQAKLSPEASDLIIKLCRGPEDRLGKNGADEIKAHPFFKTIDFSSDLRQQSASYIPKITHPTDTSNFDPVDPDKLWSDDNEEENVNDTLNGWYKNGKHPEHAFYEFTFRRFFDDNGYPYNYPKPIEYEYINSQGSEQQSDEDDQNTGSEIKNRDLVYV
Kind of test: Kinase Assay method (Fluorospark Kinase/ADP Multi-Assay Kit). As to the method: (§2) For compound k-1:B-1 (racemate), GA-002A, GA-002B, GA-005A and GA-005B, inhibitory activity evaluation (calculation of IC50) was performed on LATS1 and LATS2 (manufactured by Carna Biosciences). The activity was measured using the Kinase Assay method described below. The compounds were added such that the test concentration of k-1:B-1 (racemate), GA-002A, GA-002B, GA-005A and GA-005B was in 8 steps (10 μM, 1 μM, 100 nM, […], 10 nM, 3 nM, 1 nM, 0.3 nM) from the final concentration of 10 μM to 0.3 nM.
(§3) As the analysis method of the data, the mean signal of the control well containing reaction components other than the evaluation compound was set to 0% inhibition, the mean signal without enzyme addition was set to 100% inhibition, and the inhibition rate was calculated from the mean signal of 2 wells of each test substance test. IC50 value was calculated using EXSUS (version 7.1.6, manufactured by CAC EXICARE Corporation).
(§4) 2 μL of a compound of the present invention solution at 2.5-fold concentration, 1 μL of substrate at 5-fold concentration (SGKtide: NH2—CKKRNRRLSVA-COOH, manufactured by SignalChem), ATP (manufactured by Sigma-Aldrich), MgCl2 (manufactured by FUJIFILM Wako Pure Chemical Corporation) solution (final concentration 10 μM, 400 μM or 5 mM), and 2 μL of kinase solution at 2.5-fold concentration (final concentration of LATS1 or LATS2 5 μg/mL), each prepared with assay buffer (20 mM HEPES, 0.01% Triton X-100, 2 mM DTT, pH 7.5), were mixed in the wells of a polypropylene 384-well plate (manufactured by Greiner Bio-One, #784900) and reacted at room temperature for 5 hr. Successively, 5 μL detection solution (Fluorospark (registered trade mark)Kinase/ADP Multi-Assay Kit; manufactured by FUJIFILM Wako Pure Chemical Corporation) was added, and the mixture was reacted at room temperature 30 min. Successively, 5 μL of a reaction quenching liquid (Fluorospark (registered trade mark) Kinase/ADP Multi-Assay Kit; manufactured by FUJIFILM Wako Pure Chemical Corporation) was added to discontinue the reaction. Thereafter, the ADP concentration of the reaction solution was quantified by EnSpire (manufactured by PerkinElmer) to detect the kinase reaction.

The target of test [2] is T3, LATS2 (Homo sapiens, UniProt Q9NRM7).
T3 construct: purchased Carna Biosciences
T3 sequence (Q9NRM7 553-1088 limits assumed): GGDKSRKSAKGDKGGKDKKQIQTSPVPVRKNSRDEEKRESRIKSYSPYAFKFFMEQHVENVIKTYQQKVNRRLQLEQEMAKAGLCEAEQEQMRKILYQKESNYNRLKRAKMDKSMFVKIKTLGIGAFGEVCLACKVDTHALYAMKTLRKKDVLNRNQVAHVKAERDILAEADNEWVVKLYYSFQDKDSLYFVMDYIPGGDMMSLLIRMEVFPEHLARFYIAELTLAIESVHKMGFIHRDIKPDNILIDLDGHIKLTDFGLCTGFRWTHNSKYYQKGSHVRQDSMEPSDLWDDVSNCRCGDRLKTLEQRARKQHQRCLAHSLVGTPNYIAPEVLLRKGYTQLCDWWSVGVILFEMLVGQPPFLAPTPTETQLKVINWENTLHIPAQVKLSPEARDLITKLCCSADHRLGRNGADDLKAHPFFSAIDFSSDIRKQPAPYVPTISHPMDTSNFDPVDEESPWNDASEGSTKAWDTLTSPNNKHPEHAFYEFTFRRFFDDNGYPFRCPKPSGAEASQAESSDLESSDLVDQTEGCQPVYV
The test is described as above. On the procedure: as §2, §3, §4

The mark [3] stands for this setting: Kinase Assay method, 8 steps 10 μM to 0.3 nM.

Consider `CCC(=NNC(=O)NC(C)c1cccc(O)c1)c1ccc(O)c(C)c1O` (centres unmarked) [k-1:I-10], for which, on LATS2 [1], the IC50 (commonly the concentration that gives 50% inhibition) was found to be 15 nM. As for `CC/C(=N\NC(=O)[C@H](C)Nc1cccc(O)c1)c1ccc(O)c(C)c1O` [GA-005B], the inhibition at 0.1 µM was 14% at LATS1 (100 nM, read-out: LARS1 inhibitory rate (%)) and 27% at LATS2 [2] (100 nM, read-out: LARS2 inhibitory rate (%)). Also, the inhibition at 1 µM turned out to be 45% at LATS1 (1000 nM, read-out: LARS1 inhibitory rate (%)) and 55% on LATS2 [2] (1000 nM, read-out: LARS2 inhibitory rate (%)). For the same compound, the half-maximal inhibitory concentration (IC50) came out at 1270 nM against LATS1 (setting [3]) and 652 nM against LATS2 [2] (setting [3]).

In the case of `Cc1c(O)ccc(C(CC(C)C)=NNC(=O)CNc2ccccc2)c1O` [k-5:H-1], the IC50 at LATS2 [1] was 21.6 nM.

In the case of `CCC(=NNC(=O)CNc1cccc(C)c1)c1ccc(O)c(C)c1O` [k-1:H-3], the IC50 at LATS2 [1] is 46.9 nM. On to `CC/C(=N\NC(=O)NCc1ccccc1)c1ccc(O)c(C)c1O` [k-1:I-1], for which, at LATS2 [1], the IC50 was determined as 96 nM. Turning to `CCC(=NNC(=O)CNc1ccccc1O)c1ccc(O)c(C)c1O` [k-1:D-4], on LATS2 [1], the IC50 turned out to be 33.4 nM.
